Measured values: patent publication US20030022814A1, “Method for treating or preventing depression” (priority 2002, published 2003)

Experiments:
[1] = tested on: PDE IV inhibitor-induced emesis in the ferret; experiment: Ferret emesis: PDE4 inhibitors and neurokinin-1 receptor antagonists; type: in vivo; settings: NK-1 antagonist given before oral emetic dose of PDE IV inhibitor
Method: Ferret Emesis: PDE4 Inhibitors and Neurokinin-1 Receptor Antagonists
Intracerebroventricular (i.c.v.) administration was performed following a surgical implantation of an i.c.v. guide cannula. Under isoflurane anaesthesia, a 22 gauge stainless steel guide cannula (total length=20 mm) was lowered 9 mm below the surface of the skull, at the midline, 2 mm anterior to the cross-suture of the posterior edge of the skull. The tip of the guide cannula is then positioned 3-5 mm directly above the area postrema. The guide cannula was fixed to the skull using 2 screws and dental acrylic cement. The animals received antibiotic (Clamoxyl LA, SmithKline Beecham, Surrey, U.K.; 15 mg kg^−1 s.c.) and analgesic injections (Zenecarp, C-Vet Limited, Edmounds, U.K.; 5 mg kg^−1 s.c.) and were housed in individual cages. They were allowed at least 1 week to recover. Intracerebroventricular administration of drugs was performed by inserting an injection unit of 24-25 mm (level of the area postrema) or 27 mm (for brain tissue injection) length into the guide cannula and infusing 2 μl of the drug solution (or vehicle) over 1 minute. […]
Anti-emetic agents ondansetron (3 mg kg^−1 i.p.), and neurokinin-1 receptor antagonists (3 mg kg^−1 i.p. or s.c.) were administered 30 minutes prior to an oral challenge with an emetic dose of selected PDE IV inhibitors. […] The emetic response was monitored as described earlier. […]

emesis in ferrets = experiment: Ferret emesis: PDE4 inhibitors and alpha-2 adrenoreceptor agonists/antagonists; settings: for emesis following administration of the drug itself: route not stated

COc1ccccc1CN[C@H]1CCCN[C@H]1c1ccccc1 [CP-99,994]
effect on PDE IV inhibitor-induced emesis [1]: abolished

CS(=O)(=O)NCCN1C(=O)NC[C@]12CCN1CCc3c(oc4ccccc34)[C@@H]1C2 [MK-467]
emesis following administration of the drug itself (emesis in ferrets): Emesis was also recorded

CN1CC[C@]2(CCN3CCc4c(oc5ccccc45)[C@@H]3C2)N(C)C1=O.Cl [MK-912]
emesis following administration of the drug itself (emesis in ferrets): Emesis was also recorded

Clc1cccc(Cl)c1N=C1NCCN1 [clonidine]
emesis induced by CT-2450 (emesis in ferrets; 250 μg kg−1 pre-treatment, CT-2450 30 mg kg−1 p.o., all animals treated): abolished | animals with complete protection against R-rolipram-induced emesis (emesis in ferrets; 250 μg kg−1 pre-treatment, R-rolipram 3 mg kg−1 p.o.): two out of three | animals with complete protection against RS14203-induced emesis (emesis in ferrets; 250 μg kg−1 pre-treatment, RS14203 1 mg kg−1 p.o.): five out of six | latency of onset of RS14203-induced emesis (emesis in ferrets; RS14203 1 mg kg−1 p.o. challenge): increased | number of retches and vomits induced by RS14203 (emesis in ferrets; RS14203 1 mg kg−1 p.o. challenge, clonidine 62.5-250 μg kg−1): dose-dependently decreased

COC(=O)[C@@H]1[C@H]2C[C@H]3c4[nH]c5ccccc5c4CCN3C[C@@H]2CC[C@@H]1O [yohimbine]
emesis (retching and vomiting) induced by the drug itself (emesis in ferrets; intraperitoneal injection): induced retching and vomiting in all ferrets treated
